Data on five compounds can be found in US20240341171A1 (Semiconductor Energy Laboratory Co., Ltd., priority 2021, published 2024).

Data set [1] is described as follows: Solubility test of PTCDI compounds (1 mg, solvent added in 1 mL steps, ultrasonic treatment, visual check). The settings on record: for solubility: in chloroform and tetrahydrofuran, judged visually; for solvent [mL] CHCl3: volume of chloroform needed to dissolve 1 mg of compound; for solvent [mL] THF: volume of tetrahydrofuran needed to dissolve 1 mg of compound. In kind it is physicochemical. The method, then:
In this example, a solubility test for a perylenetetracarboxylic diimide (PTCDI) compounds were performed.
First, 1 mg of each of the PTCDJ compounds represented by (a) to (d) were weighed out and added to transparent containers. Next, (1) 1 mL of a solvent was added, and then ultrasonic treatment was performed for 1 minute. After that, (2) whether the PTCDI compounds were dissolved in the solvents was checked visually.
In each PTCDI compound, aforementioned (1) and (2) were repeated until the PTCDI compounds were dissolved in the solvents. When a solution is colored in yellowish-orange and solids of materials disappear, the PTCDI compounds are regarded to be dissolved.

Data set [2] can be described thus: Calculation of solubility parameter (SP value) by molecular dynamics (LAMMPS). The settings on record: calculated SP value against reference SP value of chloroform (approx. 9.4).
Excerpt: The solubility parameter (SP value) δ can be calculated by Formula (1) shown in the following Formula 1 and Formula (2) shown in the following Formula 2, using a cohesive energy density obtained by a molecular dynamics (MD) method using the interaction between molecules in the molecular assembly.
Note that in the above Formula 1 and Formula 2, NA represents Avogadro's constant, V represents a molar volume of a molecular assembly, Ecoh represents a cohesive energy, Eassembly/number of molecules represents an energy per molecule in an assembly, and Eisolated molecule represents energy of each molecule that constitutes the assembly.
As the energy of the assembly (Eassembly) and the energy of each molecule that constitutes the assembly (Eisolated molecule), a three-dimensional coordinate of a molecule that is calculated using LAMMPS, which is an open source software, can be used.
Specifically, an initial state of the molecular assembly in which molecules are arranged at random is generated, using a single material system of molecules whose SP value σ is intended to be calculated. Next, the energy Eassembly of the assembly is calculated by performing a MD calculation using an NTP ensemble until when the energy and the volume go into an equilibrium state. On the other hand, the energy Eisolated molecule of each molecule that constitutes the assembly is calculated in the following manner: the volume and the shape of each molecule that constitutes the assembly are fixed and sampling is performed by the MD calculation using NVT ensemble. Next, statistical processing and substitution into Formula 1 and Formula 2 are performed, whereby the SP value δ is calculated.
First, the energy Eassembly of the assembly of the PTCDI derivatives is calculated. Specifically, an initial state (also referred to as a liquid model) of the molecular assembly which consists of a single system of 100 PTCDI derivatives (shown above as (a) to (i)) arranged at random, is generated. Next, the MD calculation using the NTP ensemble is performed until the energy and the volume go into an equilibrium state. In the MD calculation, samplings of Step 1 under high-temperature and pressure-rising conditions, Step 2 under high-temperature and pressure-rising conditions, Step 3 under high-temperature and high-pressure conditions, Step 4 under high-temperature and normal-pressure conditions, and Step 5 under normal-temperature and normal-pressure conditions are sequentially performed. The energy Eassembly/number of molecules per molecule of the PTCDI derivative is calculated by dividing the calculated value by 100.
The energy Eassembly of the assembly of the solvent is calculated.
Next, the MD calculation using the NTP ensemble is performed until the energy and the volume go into an equilibrium state. […]
For data set [3] the following is noted: reference value from a website; cited from earlier work.

In the case of `CN1C(=O)c2ccc3c4ccc5c6c(ccc(c7ccc(c2c37)C1=O)c64)C(=O)N(C)C5=O`, in data set [1], the solubility result was “extremely poor”, the “solvent [mL] CHCl3” value was above 100 mL and the “solvent [mL] THF” value is given as above 100 mL. In addition, in data set [2], the “difference in SP value σ CHCl3” value is recorded as 2.9.

Regarding `CCCCCCCCN1C(=O)c2ccc3c4ccc5c6c(ccc(c7ccc(c2c37)C1=O)c64)C(=O)N(CCCCCCCC)C5=O`, in data set [1], the solubility entry was “improved as compared with that of Me-PTCDI”, the “solvent [mL] CHCl3” value is recorded as 55 mL and the “solvent [mL] THF” value is above 100 mL. Also, in data set [2], the “difference in SP value σ CHCl3” value is 1.3.

In the case of `CCCCC(CC)CN1C(=O)c2ccc3c4ccc5c6c(ccc(c7ccc(c2c37)C1=O)c64)C(=O)N(CC(CC)CCCC)C5=O` (centres unmarked), in data set [1], the solubility entry is listed as “improved as compared with that of PTCDI-C8”, the “solvent [mL] CHCl3” value worked out at 1 mL and the “solvent [mL] THF” value is listed as 16 mL. The “difference in SP value σ CHCl3” value in data set [2] is 1.0.

Consider `CCC(CC)N1C(=O)c2ccc3c4ccc5c6c(ccc(c7ccc(c2c37)C1=O)c64)C(=O)N(C(CC)CC)C5=O` [(d) EtPr-PTCDI, 2,9-di(pentan-3-yl)anthra[2,1,9-def:6,5,10-d′e′f]diisoquinoline-1,3,8,10(2H,9H)-tetraone], for which, in data set [1], the solubility entry is given as “extremely favorable”, the “solvent [mL] CHCl3” value was 1 mL and the “solvent [mL] THF” value is recorded as 1 mL. Besides, the “difference in SP value σ CHCl3” value in data set [2] was 0.9.

In the case of `ClC(Cl)Cl` [chloroform], the SP value entry in data set [3] is “approximately 9.4 (cal/cm^3)^1/2”.
